According to patent US11324706B2, “Composition for inhibiting growth of breast cancer stem cells containing phenylacetaldehyde” (JEJU NATIONAL UNIVERSITY INDUSTRY-ACADEMIC COOPERATION …, priority 2016, dated 2022):

Tested on: MCF-7 cell-derived mammospheres
Assay: Mammosphere formation, MCF-7-derived
Format: cell-based, human
Settings: volatile materials exposed to MCF-7 (FIG. 5B)
Procedure: FIGS. 4A, 4B and 4C show effects of PAA on formation of MCF-7 cell-derived mammospheres. Primary mammospheres were cultured together with PAA (0.2 and 0.5 mM) or DMSO;
Human breast cancer cells, i.e., MCF-7 and MDA-MB-231, were commercially obtained from American Type Culture Collection (ATCC; Manassas, Va., USA). MCF-7 and MDA-MB-231 cells were cultured in Dulbecco's modified essential medium (DMEM; Hyclone, Logan, Utah, USA) containing 10% fetal bovine serum (FBS; Hyclone), 100 U/mL of penicillin, and 100 μg/mL of streptomycin (Hyclone). The MCF-7 and MDA-MB-231 cells were maintained at 37° C. in a 5% CO2-containing humidified incubator. The cells were plated at a density of 1×10^6 on a 10 cm petri dish. In order to establish primary mammospheres, single cell-suspended MCF-7 and MDA-MB-231 cells were seeded at a density (cells/well) of 3.5×10^4 to 4×10^4 and 0.5×10^4 to 1×10^4, respectively, on ultra-low attachment 6-well plates containing 2 ml complete MammoCult™ medium (StemCell Technologies, Vancouver, BC, Canada). The complete MammoCult™ medium was supplemented with 4 μg/mL of heparin, 0.48 μg/mL of hydrocortisone, 100 U/mL of penicillin and 100 μg/mL of streptomycin. The cells were cultured for 7 days in a 37° C. 5% CO2 incubator.
At 7 days of culture, the cell culture plate was disposed on a scanner (Epson Perfection V700 PHOTO, Epson Korea, Co, Seoul, Korea) to obtain an 8 bit gray scale image of mammospheres. The image was obtained at a low resolution (300 dpi) using an NICE software program and downloaded from ftp://ftp.nist.gov/pub/physics/mLclarke/NICE. For counting, preferred numbers of rows and columns (for example, 2×3 of 6-well plate) were selected to form regions of interest (ROIs), and an oval setting of the NICE program was selected and then respective ROIs were defined by moving the shapes of provided ROIs and controlling the sizes thereof. The background signal of the image was negated using a critical algorithm and the selected image was automatically counted. Regarding the mammosphere formation analysis, formation efficiency of mammospheres (MFE, %) was determined in accordance with the number of mammospheres per well/the total number of cells plated per well×100.

Row | Structure (SMILES) | formation of primary mammospheres derived from MCF-7 cells
1 | CC(C=O)c1ccccc1 (centres unmarked) [2-phenylpropionaldehyde] | potently inhibited
2 | O=CCCc1ccccc1 [3-phenylpropionaldehyde] | inhibited
